From patent publication US9133235B2, “Macrocyclic antagonists of the motilin receptor for treatment of gastrointestinal dysmotility disorders” (Ocera Therapeutics, Inc., priority 2006, dated 2015)

Key:
[1] = molecular target: T1, human motilin receptor (Homo sapiens, UniProt O43193); assay: Aequorin functional assay (motilin receptor); format: cell-based; design: host or cells: CHO-K1 cells co-expressing Gα16 and mitochondrially targeted Aequorin; settings: for IC50: functional activity, antagonist testing vs motilin 0.5 nM (EC80)
T1 sequence (O43193 whole entry): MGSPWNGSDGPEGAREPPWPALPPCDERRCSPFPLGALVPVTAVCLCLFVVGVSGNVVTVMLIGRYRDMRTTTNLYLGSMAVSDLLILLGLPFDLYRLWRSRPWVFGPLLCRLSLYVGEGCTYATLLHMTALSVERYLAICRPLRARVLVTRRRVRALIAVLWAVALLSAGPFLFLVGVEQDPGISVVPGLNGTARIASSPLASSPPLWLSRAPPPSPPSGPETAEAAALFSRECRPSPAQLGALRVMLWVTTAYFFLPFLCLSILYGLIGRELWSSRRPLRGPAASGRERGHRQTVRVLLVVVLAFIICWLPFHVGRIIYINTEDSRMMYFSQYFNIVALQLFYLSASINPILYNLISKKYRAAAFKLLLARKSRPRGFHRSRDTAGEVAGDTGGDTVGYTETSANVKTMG
Description: B. Aequorin Functional Assay (Motilin Receptor)
The evaluation of compounds of the invention for functional activity can be conducted according to literature methods or as described below. (Carreras, C. W.; Siani, M. A.; Santi, D. V.; Dillon, S. B. Anal. Biochem. 2002, 300, 146-151.)
• Membranes were prepared using AequoScreen™ (EUROSCREEN, Belgium) cell lines expressing the human motilin receptor (cell line ES-380-A; receptor accession #AF034632). This cell line is constructed by transfection of the human motilin receptor into CHO-K1 cells co-expressing Gα16 and the mitochondrially targeted Aequorin (Ref. #ES-WT-A5). • Motilin (Bachem, #H-4385) • Assay buffer: DMEM-F12 (Dulbeccoe's Modified Eagles Medium) with 15 mM HEPES and 0.1% BSA (pH 7.0) • Coelenterazine (Molecular Probes™, Leiden, The Netherlands) Final Test Concentrations (N=5) for Compounds: • 10, 3.16, 1.0, 0.316, 0.10 μM. Compound Handling:
Compounds were provided as dry films at a quantity of approximately 1.2 μmol in pre-formatted 96-well plates. Compounds were dissolved in 100% DMSO at a concentration of 10 mM and stored at −20° C. until further use. Daughter plates were prepared at a concentration of 500 μM in 30% DMSO with 0.1% BSA and stored at −20° C. until testing. On the test day, compounds were allowed to thaw at room temperature and than diluted in assay buffer according to the desired test concentrations. Under these conditions, the maximum final DMSO concentration in the assay was 0.6%.
Cells are collected from culture plates with Ca^2+ and Mg^2+-free phosphate buffered saline (PBS) supplemented with 5 mM EDTA, pelleted for 2 minutes at 1000×g, resuspended in assay buffer (see above) at a density of 5×10^6 cells/mL and incubated overnight in the presence of 5 μM coelenterazine. After loading, cells were diluted with assay buffer to a concentration of 5×10^5 cells/mL.
For agonist testing, 50 μL of the cell suspension was mixed with 50 μL of the appropriate concentration of test compound or motilin (reference agonist) in 96-well plates (duplicate samples). The emission of light resulting from receptor activation was recorded using the Functional Drug Screening System 6000 ‘FDSS 6000’ (Hamamatsu Photonics K. K., Japan).
For antagonist testing, an approximate EC80 concentration of motilin (i.e. 0.5 nM; 100 μL) was injected onto the cell suspension containing the test compounds (duplicate samples) 15-30 minutes after the end of agonist testing and the consequent emission of light resulting from receptor activation was measured as described in the paragraph above.
Results are expressed as Relative Light Units (RLU). Concentration response curves were analyzed using GraphPad™ Prism® (GraphPad Software, San Diego, Calif.) by non-linear regression analysis (sigmoidal dose-response) based on the equation E=Emax/(1+EC50/C)n where E is the measured RLU value at a given agonist concentration (C), Emax is the maximal response, EC50 is the concentration producing 50% stimulation and n is the slope index. For agonist testing, results for each concentration of test compound were expressed as percent activation relative to the signal induced by motilin at a concentration equal to the EC80 (i.e. 0.5 nM). For antagonist testing, results for each concentration of test compound were expressed as percent inhibition relative to the signal induced by motilin at a concentration equal to the EC80 (i.e. 0.5 nM).

[2] = molecular target: T1, human motilin receptor; assay: Competitive radioligand binding assay (motilin receptor); design: purchased PerkinElmer (SignalScreen) 6110544; host or cells: CHO cells, stably transfected; membranes; settings: [125I]-motilin competition, membranes of CHO cells with human motilin receptor; read-out: Ki
Description: A. Competitive Radioligand Binding Assay (Motilin Receptor)
The competitive binding assay at the human motilin receptor was carried out analogously to assays described in the literature.
• Membranes were prepared from CHO cells stably transfected with the human motilin receptor and utilized at a quantity of 1.5 μg/assay point. [PerkinElmer™ SignalScreen Product #6110544] • [^125I]-Motilin (PerkinElmer, #NEX-378); final concentration: 0.04-0.06 nM • Motilin (Bachem™, #H-4385); final concentration: 1 μM • Multiscreen Harvest plates-GF/B (Millipore™, #MAHFB1H60) • Deep-well polypropylene titer plate (Beckman Coulter™, #267006) • TopSeal-A (PerkinElmer, #6005185) • Bottom seal (Millipore, #MATAH0P00) • MicroScint-0 (PerkinElmer, #6013611) • Binding Buffer: 50 mM Tris-HCl (pH 7.4), 10 mM MgCl2, 1 mM EDTA, 0.1% BSA Assay Volumes: • 150 μL of membranes diluted in binding buffer • 10 μL of compound diluted in binding buffer • 10 μL of radioligand ([^125I]-Motilin) diluted in binding buffer Final Test Concentrations (N=11) for Compounds: • 10, 5.0, 2.0, 1.0, 0.50, 0.20, 0.10, 0.050, 0.020, 0.010, 0.0050 μM. Compound Handling:
Compounds were provided frozen on dry ice at a stock concentration of 10 mM diluted in 100% DMSO and stored at −20° C. until the day of testing. On the test day, compounds were allowed to thaw at room temperature and than diluted in assay buffer according to the desired test concentrations. Under these conditions, the maximum final DMSO concentration in the assay was 0.5%.
In deep-well plates, diluted cell membranes (1.5 μg/mL) are combined with 10 μL of either binding buffer (total binding, N=5), 1 μM motilin (non-specific binding, N=3) or the appropriate concentration of test compound. The reaction is initiated by addition of 10 μL of [^125I]-motilin (final conc. 0.04-0.06 nM) to each well. Plates are sealed with TopSeal-A, vortexed gently and incubated at room temperature for 2 hours. The reaction is arrested by filtering samples through pre-soaked (0.3% polyethyleneimine, 2 h) Multiscreen Harvest plates using a Tomtec Harvester, washed 9 times with 500 μL of cold 50 mM Tris-HCl (pH 7.4), and than plates are air-dried in a fumehood for 30 minutes. A bottom seal is applied to the plates prior to the addition of 25 μL of MicroScint-0 to each well. Plates are than sealed with TopSeal-A and counted for 30 sec per well on a TopCount Microplate Scintillation and Luminescence Counter (PerkinElmer) where results are expressed as counts per minute (cpm).
Data are analyzed by GraphPad™ Prism® (GraphPad Software, San Diego, Calif.) using a variable slope non-linear regression analysis.
[formula] where total and non-specific binding represent the cpm obtained in the absence or presence of 1 μM motilin, respectively.

SMILES | IC50 [1] | Ki [2] | approximate EC80 concentration ([1]; reference agonist)
CC(C)[C@H]1NC(=O)[C@@H](Cc2cccc(C(F)(F)F)c2)NCCOc2ccccc2CCCNC(=O)[C@H](CNC(=N)N)NC1=O [Compound 503] | ≤ 100 nM |  | 
CC(C)[C@H]1NC(=O)[C@@H](Cc2cccc(C(F)(F)F)c2)NCCOc2ccccc2C[C@@H](C)CNC(=O)[C@H](CNC(=N)N)NC1=O [Compound 504] | ≤ 100 nM | ≤ 100 nM | 
CC(C)[C@H]1NC(=O)[C@@H](Cc2cccc(C(F)(F)F)c2)NCCOc2ccccc2C[C@H](C)CNC(=O)[C@H](CNC(=N)N)NC1=O [Compound 505] | ≤ 10 nM | ≤ 10 nM | 
CCC[C@@H]1NC(=O)[C@@H](C(C)C)NC(=O)[C@@H](Cc2cccc(F)c2)N[C@H](C)COc2ccccc2CCCNC1=O [Compound 513] | ≤ 100 nM | ≤ 100 nM | 
CC(C)[C@H]1NC(=O)[C@@H](Cc2cccc(Cl)c2)N[C@@H](C)COc2ccccc2CCCNC(=O)[C@H](CNC(=N)N)NC1=O [Compound 516] | ≤ 100 nM |  | 
CC(C)[C@H]1NC(=O)[C@@H](Cc2cccc(F)c2)N[C@@H](C)COc2ccccc2CCCNC(=O)[C@H](CN(C)C)NC1=O [Compound 529] | ≤ 10 nM | ≤ 10 nM | 
CC(C)[C@H]1NC(=O)[C@@H](Cc2cccc(C(F)(F)F)c2)NCCOc2ccccc2CCCNC(=O)[C@H](CN2CCCC2)NC1=O [Compound 532] | ≤ 100 nM | ≤ 10 nM | 
CC(C)[C@H]1NC(=O)[C@@H](Cc2cccc(F)c2)N[C@@H](C)COc2ccccc2CCCNC(=O)[C@H](CN2CCCC2)NC1=O [Compound 533] | ≤ 10 nM | ≤ 100 nM | 
CC(C)[C@H]1NC(=O)[C@@H](Cc2cccc(F)c2)N[C@@H](C)COc2ccccc2CCCNC(=O)[C@H](CN2CCOCC2)NC1=O [Compound 534] | ≤ 10 nM | ≤ 100 nM | 
CC(C)[C@H]1NC(=O)[C@@H](Cc2cccc(F)c2)N[C@@H](C)COc2ccccc2CCCNC(=O)[C@H](CNc2ncccn2)NC1=O [Compound 535] | ≤ 10 nM | ≤ 100 nM | 
Cc1cnnn1C[C@@H]1NC(=O)[C@@H](C(C)C)NC(=O)[C@@H](Cc2cccc(F)c2)N[C@@H](C)COc2ccccc2CCCNC1=O [Compound 536] | ≤ 100 nM | ≤ 100 nM | 
CC(C)[C@H]1NC(=O)[C@@H](Cc2cccc(C(F)(F)F)c2)NCCOc2ccccc2CCCNC(=O)[C@H](CN=[N+]=[N-])NC1=O [Compound 537] | ≤ 1 nM | ≤ 10 nM | 
CC(C)[C@H]1NC(=O)[C@@H](Cc2cccc(F)c2)N[C@@H](C)COc2ccccc2CCCNC(=O)[C@H](CN=[N+]=[N-])NC1=O [Compound 538] | ≤ 1 nM | ≤ 10 nM | 
CC(C)[C@H]1NC(=O)[C@@H](Cc2cccc(C(F)(F)F)c2)NCCOc2ccccc2CCCNC(=O)[C@H](Cn2cccc2)NC1=O [Compound 539] | ≤ 1 nM | ≤ 10 nM | 
CC(C)[C@H]1NC(=O)[C@@H](Cc2cccc(F)c2)N[C@@H](C)COc2ccccc2CCCNC(=O)[C@H](Cn2cccc2)NC1=O [Compound 540] | ≤ 1 nM | ≤ 10 nM | 
CC(C)[C@H]1NC(=O)[C@@H](Cc2cccc(C(F)(F)F)c2)NCCOc2ccccc2CCCNC(=O)[C@H](CN)NC1=O [Compound 542] | ≤ 10 nM | ≤ 100 nM | 
CC(C)[C@H]1NC(=O)[C@@H](Cc2cccc(F)c2)N[C@@H](C)COc2ccccc2CCCNC(=O)[C@H](CN)NC1=O [Compound 543] | ≤ 100 nM | ≤ 100 nM | 
CC(C)[C@H]1NC(=O)[C@@H](Cc2cccc(F)c2)N[C@@H](C)COc2ccccc2C[C@H](C)CNC(=O)[C@H](CN)NC1=O [Compound 544] | ≤ 1 nM | ≤ 10 nM | 
CC(C)[C@H]1NC(=O)[C@@H](Cc2cccc(F)c2)N[C@@H](C)COc2ccccc2C[C@H](C)CNC(=O)[C@H](CN=[N+]=[N-])NC1=O [Compound 545] | ≤ 1 nM | ≤ 10 nM | 
CNC[C@@H]1NC(=O)[C@@H](C(C)C)NC(=O)[C@@H](Cc2cccc(F)c2)N[C@@H](C)COc2ccccc2C[C@H](C)CNC1=O [Compound 546] | ≤ 1 nM | ≤ 10 nM | 
CNC[C@@H]1NC(=O)[C@@H](C(C)C)NC(=O)[C@@H](Cc2cccc(C(F)(F)F)c2)NCCOc2ccccc2CCCNC1=O [Compound 547] | ≤ 10 nM | ≤ 10 nM | 
CNC[C@@H]1NC(=O)[C@@H](C(C)C)NC(=O)[C@@H](Cc2cccc(F)c2)N[C@@H](C)COc2ccccc2CCCNC1=O [Compound 548] | ≤ 10 nM | ≤ 10 nM | 
CC(C)[C@H]1NC(=O)[C@@H](Cc2cccc(F)c2)N[C@@H](C)COc2ccccc2C[C@H](C)CNC(=O)[C@H](CNc2ncccn2)NC1=O [Compound 550] | ≤ 1 nM | ≤ 10 nM | 
C[C@H]1COc2ccccc2CCCNC(=O)[C@H](CC2CC2)NC(=O)[C@@H](C2CC2)NC(=O)[C@@H](Cc2cccc(F)c2)N1 [Compound 555] | ≤ 1 nM | ≤ 10 nM | 
CC[C@H](C)[C@H](NC(=O)[C@@H]1CCCN1C(=O)[C@@H](NC(=O)[C@@H](N)Cc1ccccc1)C(C)C)C(=O)N[C@@H](Cc1ccccc1)C(=O)N[C@H](C(=O)N[C@@H](Cc1ccc(O)cc1)C(=O)NCC(=O)N[C@@H](CCC(=O)O)C(=O)N[C@@H](CC(C)C)C(=O)N[C@@H](CCC(N)=O)C(=O)N[C@@H](CCCNC(=N)N)C(=O)N[C@@H](CCSC)C(=O)N[C@@H](CCC(N)=O)C(=O)N[C@@H](CCC(=O)O)C(=O)N[C@@H](CCCCN)C(=O)N[C@@H](CCC(=O)O)C(=O)N[C@@H](CCCNC(=N)N)C(=O)N[C@@H](CC(N)=O)C(=O)N[C@@H](CCCCN)C(=O)NCC(=O)N[C@@H](CCC(N)=O)C(=O)O)[C@@H](C)O [motilin] |  |  | ~0.5 nM
